From patent US7378436B2, “Compounds” (Pfizer Inc., priority 2003, dated 2008)
Where a name gives a salt, the structure may show the parent alone.

How the values were obtained:
[1] = target: T1, human noradrenaline transporter (hNET) (Homo sapiens, UniProt P23975); assay: Inhibition of 3H-noradrenaline uptake in HEK-293 cells expressing hNET; assay type: cell-based; details: HEK-293 cells with hNET; 3H-noradrenaline 200 nM; 15 min incubation at 25° C.; read-out: NRI IC50
T1 construct: expressed in transfected cells; host or cells: HEK-293
Protocol: (§1) The compounds were tested for biological activity by their ability to inhibit the uptake of serotonin and/or noradrenaline by human serotonin and/or noradrenaline transporters as follows.
(§2) (i) Cell Culture • Human embryonic kidney cells (HEK-293) stably transfected with either the human serotonin transporter (hSERT), noradrenaline transporter (hNET) or dopamine transporter (hDAT) were cultured under standard cell culture techniques (cells were grown at 37° C. and 5% CO2in either Dulbecco's Modified Eagle's Medium (DMEM) culture media supplemented with 10% dialysed foetal calf serum (FCS), 2 mM L-glutamine and 250 μg/ml geneticin (hSERT and hNET cells) or DMEM-culture media supplemented with 5% FCS, 5% new-born calf serum, 2 mM L-glutamine and […] (hDAT cells)). Prior to assay, cells were harvested by dissociation using cell dissociation solution (Sigma) and centrifugation, and resuspended in standard assay buffer (see below) at a viable cell density of 750,000 cells/ml.
(§3) (i) Determination of Inhibitor Potency • All test compounds were dissolved in 100% DMSO at 4 mM and diluted down in 1% DMSO in water to give appropriate test concentrations. Assays were carried out in 96-well filter bottom plates. Cells expressing the appropriate human transporter protein (75,000 cells/assay well) were pre-incubated at 25° C. in standard assay buffer containing either test compound, a standard inhibitor (positive control) or compound vehicle (DMSO in water; final DMSO concentration was 0.1% in each assay well) for 5 minutes. Reactions were started by addition of either ^3H-serotonin, ^3H-noradrenaline or ^3H-dopamine substrates. All reactions were carried out at 25° C. in a shaking incubator. Incubation times were 5 minutes for the hSERT and hDAT assays and 15 minutes for the hNET assay. Reactions were terminated by addition of ice-cold wash buffer (see below), followed by filtration of the assay mixture using a vacuum manifold and rapid washing with icecold wash buffer. The quantity of ^3H-substrate incorporated into the cells was then quantified: Filtered/washed assay plates were dried at 45° C. for 1 hour, scintillation fluid added, and radioactivity measured by scintillation counting. Potency of test compounds was quantified as IC50 values (concentration of test compound required to inhibit the specific uptake of radiolabelled substrate into the cells by 50% relative to maximum (compound vehicle only) and minimum (complete inhibition by standard inhibitor) responses).
(§4) (iii) Standard Assay Buffer Composition: • Tris(hydroxymethyl)amino methane hydrochloride (26 mM) • NaCl (124 mM) • KCl (4.5 mM) • KH2PO4 (1.2 mM) • MgCl2.6H2O (1.3 mM) • Ascorbic acid (1.136 mM) • Glucose (5.55 mM) • pH 7.40 • CaCl2 (2.8 mM) • Pargyline (100 μM) • Note: The pH of the buffer was adjusted to 7.40 with 1 M NaOH before addition of CaCl2 and pargyline. • Wash Buffer Composition: • Tris(hydroxymethyl)methylamine (26 mM) • NaCl (124 mM) • KCl (4.5 mM) • KH2PO4 (1.2 mM) • MgCl2.6H2O (1.3 mM) • Ascorbic acid (1.136 mM) • pH 7.40 at 4° C. with 6M HCl
(§5) (iv) Summary of Assay Parameters

[2] = target: T2, human serotonin transporter (hSERT) (Homo sapiens, UniProt P31645); assay: Inhibition of 3H-serotonin uptake in HEK-293 cells expressing hSERT; assay type: cell-based; details: HEK-293 cells with hSERT; 3H-5HT 50 nM; 5 min incubation at 25° C.; read-out: SRI IC50
T2 construct: expressed in transfected cells; host or cells: HEK-293
Protocol: as §1, §2, §3, §4, §5

T1 sequence (P23975 whole entry): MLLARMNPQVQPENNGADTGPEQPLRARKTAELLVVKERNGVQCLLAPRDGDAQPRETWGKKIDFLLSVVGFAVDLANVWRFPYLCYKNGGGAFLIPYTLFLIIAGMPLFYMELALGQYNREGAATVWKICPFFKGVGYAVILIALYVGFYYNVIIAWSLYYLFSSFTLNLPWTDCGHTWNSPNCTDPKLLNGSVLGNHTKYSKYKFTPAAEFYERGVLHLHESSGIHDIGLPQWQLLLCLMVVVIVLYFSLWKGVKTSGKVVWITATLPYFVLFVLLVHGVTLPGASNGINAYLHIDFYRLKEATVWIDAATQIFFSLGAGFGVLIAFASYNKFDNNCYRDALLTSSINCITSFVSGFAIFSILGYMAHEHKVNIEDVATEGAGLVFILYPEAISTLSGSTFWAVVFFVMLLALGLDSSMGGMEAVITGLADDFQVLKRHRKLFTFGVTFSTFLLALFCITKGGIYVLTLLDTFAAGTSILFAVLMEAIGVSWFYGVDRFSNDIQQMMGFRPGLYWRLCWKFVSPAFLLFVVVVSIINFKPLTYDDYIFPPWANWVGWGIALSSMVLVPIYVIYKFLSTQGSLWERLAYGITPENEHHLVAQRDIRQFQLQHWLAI
T2 sequence (P31645 whole entry): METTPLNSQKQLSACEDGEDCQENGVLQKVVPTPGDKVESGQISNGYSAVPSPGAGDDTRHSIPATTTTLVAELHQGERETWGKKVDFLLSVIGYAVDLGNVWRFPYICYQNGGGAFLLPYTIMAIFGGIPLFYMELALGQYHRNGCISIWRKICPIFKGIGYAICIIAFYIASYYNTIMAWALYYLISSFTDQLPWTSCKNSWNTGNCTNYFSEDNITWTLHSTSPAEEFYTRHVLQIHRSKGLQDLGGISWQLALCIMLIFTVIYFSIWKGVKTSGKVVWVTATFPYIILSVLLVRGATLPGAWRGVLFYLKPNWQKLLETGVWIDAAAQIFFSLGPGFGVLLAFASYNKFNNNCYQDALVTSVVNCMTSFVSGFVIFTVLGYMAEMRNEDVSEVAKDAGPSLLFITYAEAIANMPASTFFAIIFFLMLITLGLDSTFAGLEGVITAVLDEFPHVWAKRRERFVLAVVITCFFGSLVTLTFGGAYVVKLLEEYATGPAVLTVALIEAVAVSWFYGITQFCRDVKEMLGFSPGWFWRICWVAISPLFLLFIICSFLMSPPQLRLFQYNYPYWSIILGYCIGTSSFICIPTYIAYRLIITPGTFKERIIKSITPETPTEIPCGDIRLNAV

| Structure (SMILES) | IC50 [1] | IC50 [2] |
| --- | --- | --- |
| CC(C)CN(C(=O)c1cccc(Cl)c1)[C@H]1CCNC1 [Example 6, 3-Chloro-N-isobutyl-N-[(3S)-pyrrolidin-3-yl]benzamide] | 56.9 nM | 45.2 nM |
| O=C(c1ccccc1)N(Cc1ccc2ccccc2c1)[C@H]1CCNC1 [Example 9, N-(2-Naphthylmethyl)-N-[(3S)-pyrrolidin-3-yl]benzamide hydrochloride] | 14 nM | 5.7 nM |
| CC(C)CN(C(=O)c1cc(F)c(Cl)cc1Cl)[C@H]1CCNC1 [Example 15, 2,4-Dichloro-5-fluoro-N-isobutyl-N-[(3S)-pyrrolidin-3-yl]benzamide hydrochloride] | 71.6 nM | 17.5 nM |
| CC(C)CN(C(=O)c1ccc(Cl)cc1Cl)[C@H]1CCNC1 [Example 2, 2,4-Dichloro-N-isobutyl-N-[(3S)-pyrrolidin-3-yl]benzamide hydrochloride] | 28.5 nM | 9.7 nM |
| CC(C)CN(C(=O)c1ccc(Cl)cc1)[C@H]1CCNC1 [Example 7, 4-Chloro-N-isobutyl-N-[(3S)-pyrrolidin-3-yl]benzamide] | 55.4 nM | 5.7 nM |
| CCCCN(C(=O)c1cccc2ccccc12)[C@H]1CCNC1 [Example 12, N-Butyl-N-[(3S)-pyrrolidin-3-yl]-1-naphthamide hydrochloride] | 26.3 nM | 21.5 nM |
| CC(C)CN(C(=O)c1ccc2ccccc2c1)[C@H]1CCNC1 [Example 11, N-Isobutyl-N-[(3S)-pyrrolidin-3-yl]-2-naphthamide hydrochloride] | 17 nM | 3.2 nM |
| CC(C)CN(C(=O)c1cccc(Cl)c1Cl)[C@H]1CCNC1 [Example 1, 2,3-Dichloro-N-isobutyl-N-[(3S)-pyrrolidin-3-yl]benzamide citrate] | 14.1 nM | 13.9 nM |
| Cc1c(F)cccc1C(=O)N(CC(C)C)[C@H]1CCNC1 [Example 4, 3-Fluoro-2-methyl-N-isobutyl-N-[(3S)-pyrrolidin-3-yl]benzamide] | 45.9 nM | 18.8 nM |
| O=C(c1ccccc1)N(Cc1ccc2ccccc2c1)[C@@H]1CCNC1 [Example 10, N-(2-Naphthylmethyl)-N-[(3R)-pyrrolidin-3-yl]benzamide hydrochloride] | 7.7 nM | 7.6 nM |
| Cc1cccc(C(=O)N(CC(C)C)[C@H]2CCNC2)c1Cl [Example 3, 2-Chloro-3-methyl-N-isobutyl-N-[(3S)-pyrrolidin-3-yl]benzamide] | 21.2 nM | 22.3 nM |
| O=C(c1ccc(Cl)cc1)N(Cc1ccc(Cl)c(Cl)c1)[C@@H]1CCNC1 [Example 13, 4-Chloro-N-(3,4-dichlorobenzyl)-N-[(3R)-pyrrolidin-3-yl]benzamide hydrochloride] | 3.1 nM | 8.8 nM |
| COc1cccc(C(=O)N(CC(C)C)[C@H]2CCNC2)c1C [Example 5, 3-Methoxy-2-methyl-N-isobutyl-N-[(3S)-pyrrolidin-3-yl]benzamide] | 32.9 nM | 10.9 nM |
| O=C(c1ccc(Cl)cc1)N(Cc1cccc(Cl)c1Cl)[C@@H]1CCNC1 [Example 14, 4-Chloro-N-(2,3-dichlorobenzyl)-N-[(3R)-pyrrolidin-3-yl]benzamide hydrochloride] | 57.1 nM | 43 nM |
| CC(C)CN(C(=O)c1ccc(Cl)c(Cl)c1)[C@H]1CCNC1 [Example 8, 3,4-Dichloro-N-isobutyl-N-[(3S)-pyrrolidin-3-yl]benzamide] | 16.7 nM | 7.5 nM |
